According to patent publication US7037500B1, “Method for using phagocytic particles and ATP receptors to deliver antigens to MHC class I receptors to induce immunity against microbial pathogens or tumors or to suppress immunity” (The Trustees of Columbia University in the City of New York, priority 2000, dated 2006):

Assays:
P2X7 receptors = target: T1, P2X7 receptors (Mus musculus, UniProt Q9Z1M0); settings: cited from earlier work
T1 sequence (Q9Z1M0 1-595): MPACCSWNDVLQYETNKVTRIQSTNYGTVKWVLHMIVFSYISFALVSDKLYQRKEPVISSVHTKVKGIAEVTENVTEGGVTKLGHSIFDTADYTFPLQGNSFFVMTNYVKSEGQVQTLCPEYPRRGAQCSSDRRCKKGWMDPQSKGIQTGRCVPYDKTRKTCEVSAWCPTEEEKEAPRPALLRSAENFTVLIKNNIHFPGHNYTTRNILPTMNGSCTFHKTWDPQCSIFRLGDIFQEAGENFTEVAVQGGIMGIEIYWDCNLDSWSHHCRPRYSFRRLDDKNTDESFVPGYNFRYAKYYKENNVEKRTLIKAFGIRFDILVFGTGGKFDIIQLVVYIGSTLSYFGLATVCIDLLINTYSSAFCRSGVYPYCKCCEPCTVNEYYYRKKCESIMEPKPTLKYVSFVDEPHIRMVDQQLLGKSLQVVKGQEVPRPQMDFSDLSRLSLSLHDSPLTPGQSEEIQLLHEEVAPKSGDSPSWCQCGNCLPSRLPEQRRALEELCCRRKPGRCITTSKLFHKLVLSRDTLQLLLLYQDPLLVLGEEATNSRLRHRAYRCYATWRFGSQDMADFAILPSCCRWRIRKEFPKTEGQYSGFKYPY

[1] = target: T2, P2X7 receptors of J774 cells (Mus musculus, UniProt Q9Z1M0); settings: previous study (8); cited from earlier work
T2 construct: P2X7 receptors of J774 cells; endogenous in cells; host or cells: J774 macrophage-like cells
T2 sequence (Q9Z1M0 1-595): T1 sequence (Q9Z1M0 1-595)

[2] = system: Mouse bone marrow derived dendritic cells / isogenic spleen derived CD8 lymphocytes; experiment: CTL assay, 3H-thymidine uptake of CD8 lymphocytes co-incubated with treated dendritic cells; assay type: cell-based
Description: It is shown herein that if a peptide such as ovalbumin is loaded into the IgG opsonized red blood cell resealed ghosts and then incubated with mouse bone derived dendritic cells—the dendritic cells will present class I MHC and induce cytotoxic CD8 lymphocytes as measured by the capacity of these lymphocytes to proliferate in response to co-incubation of the dendritic cells with CD8 lymphocytes. (Table 1)
Table 1: Mouse Bone marrow derived dendritic cells prepared as described in FIG. 3 were incubated with the appropriate isogenic spleen derived CD8 lymphocytes for several hours and then the CTL response was assayed by radiolabeled thymidine incorporation into the lymphocytes indicating a proliferative response mediated via class I MHC.

Nc1ncnc2c1ncn2[C@@H]1O[C@H](COP(=O)(O)OP(=O)(O)OP(=O)(O)O)[C@@H](O)[C@H]1O [ATP^4−]
[ATP4-] needed to induce pore formation by P2X7 receptors (P2X7 receptors): > 130 µM

Cc1ccc(N(CC(=O)O)CC(=O)O)c(OCCOc2cc3cc(-c4ncc(C(=O)O)o4)oc3cc2N(CC(=O)O)CC(=O)O)c1 [fura 2]
penetration of plasma membrane pores formed by ATP4-activated P2X7 receptors [1]: penetrate plasma membrane pores

Soluble Ova peptide: soluble ovalbumin peptide (amino acids 257–264) (ESIINFEK; UniProt P01012 257-264, looked up, fragment)
CTL Assay- 3H-thymidine uptake (proliferation assay-cpm) ([2]; dendritic cells treated with 100 ng/ml): 90,000 cpm

B1: Soluble Ova protein: soluble ovalbumin protein (protein, UniProt P01012 2-386, looked up)
Ovalbumin: GSIGAASMEFCFDVFKELKVHHANENIFYCPIAIMSALAMVYLGAKDSTRTQINKVVRFDKLPGFGDSIEAQCGTSVNVHSSLRDILNQITKPNDVYSFSLASRLYAEERYPILPEYLQCVKELYRGGLEPINFQTAADQARELINSWVESQTNGIIRNVLQPSSVDSQTAMVLVNAIVFKGLWEKAFKDEDTQAMPFRVTEQESKPVQMMYQIGLFRVASMASEKMKILELPFASGTMSMLVLLPDEVSGLEQLESIINFEKLTEWTSSNVMEERKIKVYLPRMKMEEKYNLTSVLMAMGITDVFSSSANLSGISSAESLKISQAVHAAHAEINEAGREVVGSAEAGVDAASVSEEFRADHPFLFCIKHIATNAVLFFGRCVSP
CTL Assay- 3H-thymidine uptake (proliferation assay-cpm) ([2]; dendritic cells treated with 10 mg/ml): 160,000 cpm
